In patent US12049450B2, “Pyridyloxy-carboxylate derivative and preparation method therefor, herbicidal composition, and use” (Qingdao Kingagroot Chemical Compound Co., Ltd., priority 2018, dated 2024):

Legend:
Assay in all cases: Post-emergence test experiment (greenhouse pot, spray at 2-3 leaf stage)
Type in all cases: in vivo
Details in all cases: 1000 g/ha; post-emergence spray at 2-3 leaf stage; assessed after 3 weeks; fresh weight inhibition rate
Abutilon theophrasti = system: Abutilon theophrasti
Source text: (§1) The activity level standard of harmful plants destruction (i. e. growth inhibition rate) is as follows: • Level 5: the growth inhibition rate is greater than 85%; • Level 4: the growth inhibition rate is equal to or greater than 60% and less than 85%; • Level 3: the growth inhibition rate is equal to or greater than 40% and less than 60%; • Level 2: the growth inhibition rate is equal to or greater than 20% and less than 40%; • Level 1: the growth inhibition rate is equal to or greater than 5% and less than 20%; • Level 0: the growth inhibition rate is less than 5%;
(§2) The above described growth inhibition rate is fresh weight inhibition rate.
(§3) Post-emergence test experiment: Monocotyledonous and dicotyledonous weed seeds and main crop seeds (i. e. wheat, corn, rice, soybean, cotton, oilseed, millet and sorghum.) were put into a plastic pot loaded with soil. Then covered with 0.5-2 cm soil, the seeds were allowed to grow in good greenhouse environment. The test plants were treated at 2-3 leaf stage 2 weeks after sowing. The test compounds of the invention were dissolved with acetone respectively, then added with tween-80, and using 1.5 liters per hectare of an emulsible concentrate of methyl oleate as a synergist, and diluted by certain amount of water to certain concentration. The solution was sprayed to the plants with a sprayer. Then the plants were cultured for 3 weeks in the greenhouse, and the experiment result of weed controlling effect after 3 weeks was listed in tables 3-4.

Digitaria sanguinalis = system: Digitaria sanguinalis
Source text: as §1, §2, §3

Monochoria vaginalis = system: Monochoria vaginalis
Source text: as §1, §2, §3

Echinochloa crusgalli = system: Echinochloa crusgalli
Source text: as §1, §2, §3

Galium spurium = system: Galium spurium
Source text: as §1, §2, §3

SMILES | Activity level (growth inhibition rate) Abutilon theophrasti (Abutilon theophrasti) | Activity level (growth inhibition rate) Digitaria sanguinalis (Digitaria sanguinalis) | Activity level (growth inhibition rate) Monochoria Vaginalis (Monochoria vaginalis) | Activity level (growth inhibition rate) Echinochloa crusgalli (Echinochloa crusgalli) | Activity level (growth inhibition rate) Galium spurium (Galium spurium)
CCOC(=O)Nc1cccc(CSC(=O)C(C)Oc2nc(F)c(Cl)c(N)c2Cl)c1 (racemic) [Compound 109] | 5 (Level 5: the growth inhibition rate is greater than 85%) | 5 (Level 5: the growth inhibition rate is greater than 85%) | 5 (Level 5: the growth inhibition rate is greater than 85%) | 5 (Level 5: the growth inhibition rate is greater than 85%) | 5 (Level 5: the growth inhibition rate is greater than 85%)
COCOc1cccc(C)c1COC(=O)C(C)Oc1nc(F)c(Cl)c(N)c1Cl (racemic) [Compound 110] | 5 (Level 5: the growth inhibition rate is greater than 85%) | 5 (Level 5: the growth inhibition rate is greater than 85%) | 5 (Level 5: the growth inhibition rate is greater than 85%) | 5 (Level 5: the growth inhibition rate is greater than 85%) | 5 (Level 5: the growth inhibition rate is greater than 85%)
CC(Oc1nc(F)c(Cl)c(N)c1Cl)C(=O)OCc1cc(Br)cc(C=O)c1 (racemic) [Compound 111] | 5 (Level 5: the growth inhibition rate is greater than 85%) | 5 (Level 5: the growth inhibition rate is greater than 85%) | 5 (Level 5: the growth inhibition rate is greater than 85%) | 5 (Level 5: the growth inhibition rate is greater than 85%) | 5 (Level 5: the growth inhibition rate is greater than 85%)
CC(Oc1nc(F)c(Cl)c(N)c1Cl)C(=O)OCc1cccc(Oc2ccccc2)c1 (racemic) [Compound 114] | 5 (Level 5: the growth inhibition rate is greater than 85%) | 5 (Level 5: the growth inhibition rate is greater than 85%) | 5 (Level 5: the growth inhibition rate is greater than 85%) | 5 (Level 5: the growth inhibition rate is greater than 85%) | 5 (Level 5: the growth inhibition rate is greater than 85%)
CC(Oc1nc(F)c(Cl)c(N)c1Cl)C(=O)OCc1cccc(-c2cccnc2)c1 (racemic) [Compound 115] | 5 (Level 5: the growth inhibition rate is greater than 85%) | 5 (Level 5: the growth inhibition rate is greater than 85%) | 5 (Level 5: the growth inhibition rate is greater than 85%) | 5 (Level 5: the growth inhibition rate is greater than 85%) | 5 (Level 5: the growth inhibition rate is greater than 85%)
CC(Oc1nc(F)c(Cl)c(N)c1Cl)C(=O)OCc1cccnc1 (racemic) [Compound 116] | 5 (Level 5: the growth inhibition rate is greater than 85%) | 5 (Level 5: the growth inhibition rate is greater than 85%) | 5 (Level 5: the growth inhibition rate is greater than 85%) | 5 (Level 5: the growth inhibition rate is greater than 85%) | 5 (Level 5: the growth inhibition rate is greater than 85%)
CC(Oc1nc(F)c(Cl)c(N)c1Cl)C(=O)OCc1ccncc1 (racemic) [Compound 117] | 5 (Level 5: the growth inhibition rate is greater than 85%) | 5 (Level 5: the growth inhibition rate is greater than 85%) | 5 (Level 5: the growth inhibition rate is greater than 85%) | 5 (Level 5: the growth inhibition rate is greater than 85%) | 5 (Level 5: the growth inhibition rate is greater than 85%)
Cc1cc(CSC(=O)C(C)Oc2nc(F)c(Cl)c(N)c2Cl)ccn1 (racemic) [Compound 118] | 5 (Level 5: the growth inhibition rate is greater than 85%) | 5 (Level 5: the growth inhibition rate is greater than 85%) | 5 (Level 5: the growth inhibition rate is greater than 85%) | 5 (Level 5: the growth inhibition rate is greater than 85%) | 5 (Level 5: the growth inhibition rate is greater than 85%)
CC(Oc1nc(F)c(Cl)c(N)c1Cl)C(=O)SCCc1cnccc1Cl (racemic) [Compound 119] | 5 (Level 5: the growth inhibition rate is greater than 85%) | 5 (Level 5: the growth inhibition rate is greater than 85%) | 5 (Level 5: the growth inhibition rate is greater than 85%) | 5 (Level 5: the growth inhibition rate is greater than 85%) | 5 (Level 5: the growth inhibition rate is greater than 85%)
Cc1nc(OC(C)C(=O)OCc2ccccc2)c(Cl)c(N)c1Cl (centres unmarked) [Compound 5] | 5 (Level 5: the growth inhibition rate is greater than 85%) | 5 (Level 5: the growth inhibition rate is greater than 85%) | 5 (Level 5: the growth inhibition rate is greater than 85%) | 5 (Level 5: the growth inhibition rate is greater than 85%) | 5 (Level 5: the growth inhibition rate is greater than 85%)
CC(Oc1nc(C(F)(F)F)c(Cl)c(N)c1Cl)C(=O)SCc1ccccc1 (centres unmarked) [Compound 6] | 5 (Level 5: the growth inhibition rate is greater than 85%) | 5 (Level 5: the growth inhibition rate is greater than 85%) | 5 (Level 5: the growth inhibition rate is greater than 85%) | 5 (Level 5: the growth inhibition rate is greater than 85%) | 5 (Level 5: the growth inhibition rate is greater than 85%)
CCc1c(OC(C)C(=O)SCc2ccccc2)nc(C(F)(F)F)c(CC)c1N (centres unmarked) [Compound 8] | 5 (Level 5: the growth inhibition rate is greater than 85%) | 5 (Level 5: the growth inhibition rate is greater than 85%) | 5 (Level 5: the growth inhibition rate is greater than 85%) | 5 (Level 5: the growth inhibition rate is greater than 85%) | 5 (Level 5: the growth inhibition rate is greater than 85%)
CC(Oc1ncc(C(C)C)c(N)c1Cl)C(=O)OCc1ccccc1 (centres unmarked) [Compound 9] | 5 (Level 5: the growth inhibition rate is greater than 85%) | 5 (Level 5: the growth inhibition rate is greater than 85%) | 5 (Level 5: the growth inhibition rate is greater than 85%) | 5 (Level 5: the growth inhibition rate is greater than 85%) | 5 (Level 5: the growth inhibition rate is greater than 85%)
COc1ccc(C(Oc2nc(F)c(Cl)c(N)c2Cl)C(=O)OCc2ccccc2)c(C)c1 (centres unmarked) [Compound 63] | 5 (Level 5: the growth inhibition rate is greater than 85%) |  | 5 (Level 5: the growth inhibition rate is greater than 85%) |  | 5 (Level 5: the growth inhibition rate is greater than 85%)
Nc1c(Cl)c(F)nc(OC(C(=O)OCc2ccccc2)c2cccnc2)c1Cl (centres unmarked) [Compound 64] | 5 (Level 5: the growth inhibition rate is greater than 85%) |  | 5 (Level 5: the growth inhibition rate is greater than 85%) |  | 5 (Level 5: the growth inhibition rate is greater than 85%)
Nc1c(Cl)c(F)nc(OC(C(=O)SCc2ccccc2)c2cncnc2)c1Cl (centres unmarked) [Compound 65] | 5 (Level 5: the growth inhibition rate is greater than 85%) |  | 5 (Level 5: the growth inhibition rate is greater than 85%) |  | 5 (Level 5: the growth inhibition rate is greater than 85%)
Nc1c(Cl)c(F)nc(OC(C(=O)OCc2ccccc2)c2ccc3ccccc3c2)c1Cl (centres unmarked) [Compound 66] | 5 (Level 5: the growth inhibition rate is greater than 85%) |  | 5 (Level 5: the growth inhibition rate is greater than 85%) |  | 5 (Level 5: the growth inhibition rate is greater than 85%)
